Source: DBAASP
In brackets after ≈: the same amount, converted by molar mass. Values belong to the compound of their own block, whether it stands above or below them.

Legend:
Experiment in all cases: ≥ marks a high value that may be exact or a test limit, other limits are often not marked, values filed in µg/mL are converted to µM
Bacillus subtilis 168 HT = tested on: Bacillus subtilis 168 HT
[1] = tested on: Escherichia coli K12 MG1655
[2] = tested on: Staphylococcus aureus ST88
[3] = tested on: Staphylococcus haemolyticus 527
[4] = tested on: Candida albicans ATCC 90028
[5] = tested on: Enterococcus faecium ATCC 29212
[6] = tested on: Escherichia coli O157:H7 ATCC 43895
[7] = tested on: Malassezia furfur KCTC 7744
[8] = tested on: Pseudomonas aeruginosa ATCC 27853
[9] = tested on: Staphylococcus aureus ATCC 25923
[10] = tested on: Streptococcus mutans KCTC 3065
[11] = tested on: Trichosporon beigelii KCTC 7707
[12] = tested on: Vibrio vulnificus ATCC 29307
[13] = tested on: Escherichia coli ATCC 25922
[14] = tested on: Escherichia coli ATCC 9723H
Escherichia coli NDM = tested on: Escherichia coli NDM
[15] = tested on: Pseudomonas aeruginosa ATCC 10148
[16] = tested on: Staphylococcus aureus ATCC 6538P
Streptococcus pyogenes = tested on: Streptococcus pyogenes
[17] = tested on: Cutibacterium acnes PCM 2334
[18] = tested on: Cutibacterium acnes PCM 2400
[19] = tested on: Staphylococcus epidermidis ATCC 12228
[20] = tested on: Bacillus cereus ATCC 1015
[21] = tested on: Leuconostoc mesenteroides ATCC 1059
Staphylococcus aureus MR = tested on: Staphylococcus aureus MR
[22] = tested on: Staphylococcus epidermidis ATCC 1114
[23] = tested on: Edwardsiella piscicida FSW 910410
[24] = tested on: Streptococcus iniae FP5228
[25] = tested on: Streptococcus parauberis KSP 28
[26] = tested on: Streptococcus parauberis PH0710
[27] = tested on: Vibrio alginolyticus KCCM 2928
[28] = tested on: Vibrio anguillarum TR14001NF
[29] = tested on: Vibrio campbellii KCCM 40684
[30] = tested on: Vibrio harveyi ATCC 14126
[31] = tested on: Vibrio ordalii KCCM 41669
[32] = tested on: Acinetobacter baumannii ATCC 19606
[33] = tested on: Klebsiella pneumoniae ATCC 700603
[34] = tested on: Klebsiella pneumoniae ATCC BAA-2146
[35] = tested on: Pseudomonas aeruginosa FADDI-PA070
[36] = tested on: Staphylococcus aureus ATCC 43300
[37] = tested on: Staphylococcus aureus NRS 17
[38] = tested on: Staphylococcus aureus NRS 1
[39] = tested on: Staphylococcus aureus VRSA10
[40] = tested on: Staphylococcus aureus VRSA1
[41] = tested on: Streptococcus pneumoniae ATCC 700677

Compound: CC[C@H](C)[C@H](NC(=O)[C@@H](NC(=O)[C@@H]1CCCN1C(=O)[C@H](Cc1ccccc1)NC(=O)[C@@H](N)Cc1ccccc1)[C@@H](C)CC)C(=O)N[C@@H](C)C(=O)N[C@@H](CCCN=C(N)N)C(=O)N[C@@H](CC(C)C)C(=O)N[C@@H](C)C(=O)N[C@@H](C)C(=O)N[C@@H](CCCCN)C(=O)N[C@H](C(=O)N[C@H](C(=O)N1CCC[C@H]1C(=O)N[C@@H](CO)C(=O)N[C@@H](CC(C)C)C(=O)N[C@H](C(=O)N[C@@H](CS)C(=O)N[C@@H](C)C(=O)N[C@H](C(=O)N[C@H](C(=O)N[C@@H](CCCCN)C(=O)N[C@@H](CCCCN)C(=O)N[C@@H](CS)C(=O)O)[C@@H](C)O)C(C)C)C(C)C)[C@@H](C)CC)C(C)C [FFPIIARLAAKVIPSLVCAVTKKC]
- MIC [13]: 3.46 µM (≈ 8.97 µg/mL)
- MIC [14]: 4.24 µM (≈ 11 µg/mL)
- MIC (Escherichia coli NDM): 3.46 µM (≈ 8.97 µg/mL)
- MIC [15]: ≥ 35 µM
- MIC [16]: 1.73 µM (≈ 4.48 µg/mL)
- MIC (Streptococcus pyogenes): ≥ 35 µM

Compound: CC(C)C[C@H](NC(=O)[C@H](CO)NC(=O)[C@H](CCCCN)NC(=O)[C@H](CO)NC(=O)[C@H](C)NC(=O)[C@H](Cc1ccccc1)NC(=O)[C@H](Cc1ccccc1)NC(=O)[C@H](CCCN=C(N)N)NC(=O)CNC(=O)[C@H](Cc1ccc(O)cc1)NC(=O)[C@H](CC(=O)O)NC(=O)[C@H](CS)NC(=O)[C@H](CCCN=C(N)N)NC(=O)[C@@H](N)CC(C)C)C(=O)N[C@@H](Cc1ccc(O)cc1)C(=O)N[C@@H](CC(=O)O)C(=O)N1CCC[C@H]1C(=O)N[C@@H](CC(C)C)C(=O)N[C@@H](CCCCN)C(=O)N[C@@H](CCCCN)C(=O)N[C@@H](CCCN=C(N)N)C(=O)N[C@@H](CCCN=C(N)N)C(=O)O [LRCDYGRFFASKSLYDPLKKRR]
- MIC [17]: 11.5 µM (≈ 31.3 µg/mL)
- MIC [18]: 23 µM (≈ 62.5 µg/mL)
- MIC [13]: > 735 µM
- MIC [8]: > 735 µM
- MIC [9]: 91.9 µM (≈ 250 µg/mL)
- MIC [19]: 91.9 µM (≈ 250 µg/mL)

Compound: CC(C)C[C@H](NC(=O)[C@H](Cc1cnc[nH]1)NC(=O)CNC(=O)[C@@H]1CCCN1C(=O)[C@@H](NC(=O)[C@H](CCC(N)=O)NC(=O)[C@H](Cc1cnc[nH]1)NC(=O)[C@H](CC(C)C)NC(=O)[C@@H](NC(=O)[C@H](CCCCN)NC(=O)[C@@H]1CCCN1C(=O)[C@H](CC(C)C)NC(=O)[C@@H](N)Cc1ccc(O)cc1)C(C)C)[C@@H](C)O)C(=O)N[C@@H](CCCCN)C(=O)N1CCC[C@H]1C(=O)O [YLPKVLHQTPGHLKP]
- MIC [23]: ≥ 289 µM
- MIC [24]: ≥ 51.1 µM
- MIC [25]: ≥ 289 µM
- MIC [26]: ≥ 205 µM
- MIC [27]: ≥ 289 µM
- MIC [28]: ≥ 289 µM
- MIC [29]: ≥ 289 µM
- MIC [30]: ≥ 51.1 µM
- MIC [31]: ≥ 289 µM

Compound: CC[C@H](C)[C@H](NC(=O)[C@@H](N)CC(C)C)C(=O)NCC(=O)N[C@@H](CC(C)C)C(=O)N[C@H](C(=O)N[C@@H](CO)C(=O)N[C@@H](CCCCN)C(=O)NCC(=O)N[C@H](C(=O)N[C@@H](CO)C(=O)N[C@H](C(=O)N[C@@H](CC(C)C)C(=O)N[C@H](C(=O)N[C@@H](CCCCN)C(=O)N[C@H](C(=O)N[C@H](C(=O)N[C@@H](CO)C(=O)N[C@@H](CCCCN)C(=O)N[C@@H](CCCCN)C(=O)N[C@H](C(=O)N[C@@H](CC(C)C)C(=O)N[C@@H](CCCCN)C(=O)N[C@@H](CCC(N)=O)C(N)=O)C(C)C)C(C)C)[C@@H](C)O)C(C)C)C(C)C)[C@@H](C)O)C(C)C [LIGLVSKGTSVLVKTVSKKVLKQ]
- MIC [32]: > 9.6 µM
- MIC [13]: > 9.6 µM
- MIC [33]: > 9.6 µM
- MIC [34]: 9.6 µM (≈ 23.3 µg/mL)
- MIC [8]: > 9.6 µM
- MIC [35]: 9.6 µM (≈ 23.3 µg/mL)
- MIC [36]: > 9.6 µM
- MIC [37]: 9.6 µM (≈ 23.3 µg/mL)
- MIC [38]: 9.6 µM (≈ 23.3 µg/mL)
- MIC [39]: 9.6 µM (≈ 23.3 µg/mL)
- MIC [40]: 9.6 µM (≈ 23.3 µg/mL)
- MIC [41]: 9.6 µM (≈ 23.3 µg/mL)

Further lines, with some results ahead:

- MIC (Bacillus subtilis 168 HT): 19.8 µM (≈ 32.1 µg/mL)
- MIC [1]: ≥ 79 µM
- MIC [2]: ≥ 100 µM
Compound: CC[C@H](C)[C@H](NC(=O)[C@H](CCCCN)NC(=O)[C@@H](NC(=O)[C@@H](N)Cc1ccccc1)C(C)C)C(=O)N[C@@H](CC(C)C)C(=O)N[C@@H](C)C(=O)N[C@@H](CCCCN)C(=O)N[C@@H](CC(C)C)C(=O)N[C@H](C(=O)N[C@@H](CC(N)=O)C(=O)N[C@@H](Cc1ccc(O)cc1)C(=O)N[C@@H](C)C(=O)N[C@@H](CCCCN)C(=O)N[C@@H](CC(N)=O)C(=O)O)C(C)C [FVKILAKLVNYAKN]
- MIC [3]: ≥ 100 µM

- MIC [4]: 25.4 µM (≈ 25 µg/mL)
- MIC [5]: 25.4 µM (≈ 25 µg/mL)
- MIC [6]: 12.7 µM (≈ 12.5 µg/mL)
- MIC [7]: ≥ 50.9 µM
- MIC [8]: 12.7 µM (≈ 12.5 µg/mL)
- MIC [9]: 25.4 µM (≈ 25 µg/mL)
- MIC [10]: 12.7 µM (≈ 12.5 µg/mL)
- MIC [11]: 12.7 µM (≈ 12.5 µg/mL)
Compound: CSCC[C@H](NC(=O)CNC(=O)[C@H](C)NC(=O)[C@H](C)N)C(=O)NCC(=O)N[C@@H](Cc1ccccc1)C(=O)N[C@@H](Cc1ccccc1)C(=O)NCC(=O)N[C@@H](C)C(=O)N[C@@H](CCCN=C(N)N)C(N)=O [AAGMGFFGAR]
- MIC [12]: 25.4 µM (≈ 25 µg/mL)

- MIC [20]: 20.9 µM (≈ 30 µg/mL)
- MIC [21]: 6.97 µM (≈ 9.99 µg/mL)
- MIC (Staphylococcus aureus MR): 20.9 µM (≈ 30 µg/mL)
- MIC [22]: 20.9 µM (≈ 30 µg/mL)
Compound: CC[C@H](C)[C@H](NC(=O)[C@H](CC(C)C)NC(=O)[C@@H]1CCCN1C(=O)[C@H](CC(C)C)NC(=O)[C@@H](N)Cc1ccccc1)C(=O)NCC(=O)N[C@@H](CCCCN)C(=O)N[C@@H](CC(C)C)C(=O)N[C@@H](CC(C)C)C(=O)N[C@@H](CO)C(=O)NCC(=O)N[C@@H](CC(C)C)C(=O)N[C@@H](Cc1ccc(O)cc1)C(N)=O [FLPLIGKLLSGLY]
